Like-named read-outs stand apart in the source and are kept apart here.
What was measured:
in vivo = details: male mice, 7 day
B. uniformis ATCC 8492 = test: Antianaerobic activity, MIC by standard broth dilution method (Table II); format: cell-based; details: Bacteroides uniformis, ATCC8492, 24 h, read-out: Minimal Inhibitory Concentration (MIC)
Procedure, shortened: (§1)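 MIC determined by standard broth dilution against single strains of the anaerobes and T. vaginalis.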

B. fragilis ATCC 23745 = test: as above; format: cell-based; details: Bacteroides fragilis, ATCC23745, 24 h, read-out: Minimal Inhibitory Concentration (MIC)
Procedure, shortened: as §1

T. vaginalis ATCC 30001 = test: as above; format: cell-based; details: Trichomonas vaginalis, ATCC30001, 24 h, read-out: Minimal Inhibitory Concentration (MIC)
Procedure, shortened: as §1

[1] = system: Desulfovibrio desulfuricans API-CORE; test: Minimal inhibitory concentration against anaerobic bacteria; details: 24 h
candida = test: Intravenous administration: recovery of viable candida cells from the kidneys of infected mice; format: in vivo; details: 25 mg/ml
Nocardia brasiliensis = test: Anti-bacterial activity, zone diameter; format: cell-based; details: 50 μg, read-out: Zone diameter given by 50 μg of drug
Source text: (§2) The anti-bacterial activity of the compound HC274 according to the present invention was also compared with the activity of known anti-bacterial agents with the following results: […]

pseudomonas aeruginosa = test: Anti-bacterial activity, zone diameter; format: cell-based; details: 50 μg; pseudomonas aeruginosa; read-out: Zone diameter given by 50 μg of drug
Source text: as §2

Proteus vulgaris = test: Anti-bacterial activity, zone diameter; format: cell-based; details: 50 μg, read-out: Zone diameter given by 50 μg of drug
Source text: as §2

Staphylococcus aureus = test: Anti-bacterial activity, zone diameter; format: cell-based; details: 50 μg, read-out: Zone diameter given by 50 μg of drug
Source text: as §2

Escherichia coli = test: Anti-bacterial activity, zone diameter; format: cell-based; details: 50 μg, read-out: Zone diameter given by 50 μg of drug
Source text: as §2

[2] = system: Desulfovibrio desulfuricans API-SW2; test: Minimal inhibitory concentration against anaerobic bacteria; details: for Minimal Inhibitory Concentration: 24 hours at 37° C.
[3] = system: Desulfovibrio desulfuricans API-BREWER; test: as above; details: 24 h
[4] = read-out: Minimal Inhibitory Concentration, Test 1, 24 hours at 37° C.
[5] = read-out: Minimal Inhibitory Concentration, Test 2, 24 hours at 37° C.
[6] = read-out: Minimal Inhibitory Concentration, Test 3, 24 hours at 37° C.

In the case of Cl.Clc1ccc(/C(Cn2ccnc2)=N\Nc2ccc(Cl)cc2Cl)cc1 [HC274, (E)-1-(4-chlorophenyl)-2-(1H-imidazol-1-yl)ethanone, 2,4-dichlorophenylhydrazone, hydrochloride], the LD50 at 168 h (in vivo; mouse, in vivo, iv, read-out: LD50) was 85 mg/kg, the LD12.5 (in vivo; p.o.) was 440 mg/kg and the MIC (B. uniformis ATCC 8492; Test 1) was 2.5 µg/mL. It also gave an MIC (B. uniformis ATCC 8492; Test 2) of 2.5 µg/mL, an MIC (B. uniformis ATCC 8492; Test 3) of 5 µg/mL and an MIC (B. fragilis ATCC 23745; Test 1) of 2.5 µg/mL. For the same compound, the MIC (B. fragilis ATCC 23745; Test 2) was 5 µg/mL, the MIC (B. fragilis ATCC 23745; Test 3) was 7.5 µg/mL and the MIC (T. vaginalis ATCC 30001; Test 1) was 5 µg/mL. For the same compound, the MIC (T. vaginalis ATCC 30001; Test 2) was 7.5 µg/mL, the MIC (T. vaginalis ATCC 30001; Test 3) was greater than 10 µg/mL and the MIC [1, 4] was 0.75 µg/mL. For the same compound, the MIC [1, 5] was 1 µg/mL, the MIC [1, 6] was 1 µg/mL and the CFU/g kidney (candida) was 7.7 × 10^3 CFU/g kidney. The “CFU/g kidney, % of control” value (candida) was 52 % of control, the zone of inhibition at 50 µg/disc (Nocardia brasiliensis) was 12 mm and the zone of inhibition at 50 µg/disc (pseudomonas aeruginosa) was 0 mm. The zone of inhibition at 50 µg/disc (Proteus vulgaris) was 0 mm, the zone of inhibition at 50 µg/disc (Staphylococcus aureus) was 8 mm and the zone of inhibition at 50 µg/disc (Escherichia coli) was 0 mm. For the same compound, the MIC ([2]; Desulfovibrio desulfuricans, APISW2, 24 h, read-out: Minimal Inhibitory Concentration) was 1 µg/mL, the “Minimal Inhibitory Concentration” value ([2]; Test 2) was 1.0 mg/L and the “Minimal Inhibitory Concentration” value ([2]; Test 3) was 1.0 mg/L. It also gave an MIC [3, 4] of 0.75 µg/mL, an MIC [3, 5] of 1 µg/mL and an MIC [3, 6] of 0.5 µg/mL.

— patent US4351948A, “Imidazole hydrazone derivatives” (priority 1980, dated 1982)
